Data on two molecules can be found in patent US20160115225A1, “Methods of Reducing Methylglyoxal (MGO) Modification of Recombinant Proteins in Cell Culture” (AbbVie Inc., priority 2014, published 2016).

Experiment [1] relates to adalimumab producing cell line 2. The experiment is described as follows: Lys-C peptide mapping for MGO modification of adalimumab, shake flask culture, cell line 2. It counts as cell-based. Particulars: Example 5; day 11 harvest; control 1.93%. On the procedure:
For shake flask experiments (Example 4), duplicate 500 mL Corning vented non-baffled shake flasks (200 mL working volume) were used for each condition. Similar to the seed train stage, the production stage shake flasks were kept in incubators maintained at 36° C. and 5% CO2 on shaker platforms that were set at 140 rpm.
Typical trypsin digestion for peptide mapping cleaves a denatured, reduced and alkylated protein at the carboxyl side of the two basic amino acids, lysine and arginine. Methylglyoxal (MGO) is a small molecule metabolite derived as a glycolysis byproduct which can modify arginine residues. […] The challenge of quantifying the amount of MGO modified peptide is that, it is not compared to an equivalent non-modified peptide but rather to two parental cleaved peptides. […] In order to determine a truly accurate direct measurement of an MGO-modified peptide, it is compared to its non-modified counterpart and expressed as a percentage. […] The result is a direct comparison of the same peptide with and without an MGO modification, which provides a high degree of accuracy in quantifying even trace levels of the modified species.
Procedure: Samples were dilated to a nominal concentration of 4 mg/mL. […] Samples were analyzed by LC/MS peptide mapping. […] Eluting peaks were monitored using a Thermo Scientific LTQ-Orbitrap Mass Spectrometer. […]

The test system of experiment [2] is adalimumab producing cell line 1. The experiment can be described thus: Glucose consumption of the culture, cell line 1. In kind it is cell-based. Particulars: Example 3; arginine supplementation 4 g/l. As to the method: For the bioreactor (3 L Applikon) experiments (Examples 1, 2 and 3), 3 L, bioreactors (1.5 L working volume) were initiated at 35° C. (cell line 1) and 36° C. (cell line 2), 30% DO, 200 rpm, pH of 7.1. In some of the conditions, pH was ramped down to 6.8 in three days and kept at pH 6.8 thereafter. The inclusion of pH ramp for a particular condition is indicated by the final pH in the experimental design. If the final pH is 7.1, then it indicates no pH ramp was performed, whereas if the final pH is 6.8, a pH ramp was performed on day 3 from pH 7.1 to pH 6.8. In some of the conditions, a temperature shift was performed. When temperature shift was performed, the temperature was lowered to 33° C. Again, the conditions where such a temperature shift was performed can be identified from the final temperature in the experimental design. Cultures were run in extended batch mode with the addition of a desired amount of 40% glucose stock solution was fed based on glucose measurements.
To assess if this reduction in MGO modification in the test conditions also corresponded to lower glucose consumption, the specific glucose consumption rate was calculated across the two phases of culture: average over day 0-day 5 and average over day 5-10 (period post temperature shift) (FIG. 4b). The specific glucose consumption rate in the conditions with 2DDG supplementation was lower in both phases. […] In the period post the temperature shift, up to 50% reduction in specific glucose consumption rate relative to that in the control was observed. Thus, a clear correlation has been observed between reduced glucose consumption and the extent of MGO modification of the peptides.
To further assess the applicability of this strategy, the cumulative glucose consumption levels were also evaluated for these conditions in this study (FIG. 6b). This was calculated by using daily glucose concentration measurements via the offline analyzer and by accounting for glucose feeds when added. […]

The structures appear in SMILES notation.

Take `N[C@@H](CO)C(=O)O` [Test 1, Serine]: in experiment [1], the “MGO modification (total)” value amounted to 0.68%. In the case of `N=C(N)NCCC[C@H](N)C(=O)O` [arginine, Arginine], the glucose consumption entry in experiment [2] is “no additional reduction”.
